Experimental data taken from ChEMBL document CHEMBL1201862, “PubChem BioAssay data set” (2004).
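Results reflect a 48-hour exposure of cells in 96-well plates to compound at five concentrations. Here, GI50 denotes the concentration required for 50% inhibition of growth.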 Calls of active or inactive are those of the source. No stated cut-off is given here; in the data, active = GI50 up to about 1.1 µM and inactive = higher.

How the values were obtained:
Test in all cases: DTP human tumour cell line panel, 48 h
UACC-62 = tested on: UACC-62
SNB-19 = tested on: SNB-19
HT-29 = tested on: HT-29
HCT-15 = tested on: HCT-15
A549 = tested on: A549
HL-60 = tested on: HL-60
CCRF-CEM = tested on: CCRF-CEM
SN12C = tested on: SN12C
OVCAR-5 = tested on: OVCAR-5
SF-295 = tested on: SF-295
UACC-257 = tested on: UACC-257
OVCAR-3 = tested on: OVCAR-3
Malme-3M = tested on: Malme-3M
IGROV-1 = tested on: IGROV-1
NCI/ADR-RES = tested on: NCI/ADR-RES
OVCAR-4 = tested on: OVCAR-4
SK-MEL-28 = tested on: SK-MEL-28
BT-549 = tested on: BT-549
T47D = tested on: T47D
SK-OV-3 = tested on: SK-OV-3
COLO 205 = tested on: COLO 205
HOP-62 = tested on: HOP-62
EKVX = tested on: EKVX
OVCAR-8 = tested on: OVCAR-8
PC-3 = tested on: PC-3
HCT-116 = tested on: HCT-116
TK-10 = tested on: TK-10
MDA-MB-231 = tested on: MDA-MB-231
SW-620 = tested on: SW-620
SF-268 = tested on: SF-268
RXF 393 = tested on: RXF 393
MOLT-4 = tested on: MOLT-4
HOP-92 = tested on: HOP-92
SK-MEL-2 = tested on: SK-MEL-2
CAKI-1 = tested on: CAKI-1
SR = tested on: SR
DU-145 = tested on: DU-145
LOX IMVI = tested on: LOX IMVI
MDA-MB-435 = tested on: MDA-MB-435
SF-539 = tested on: SF-539
NCI-H226 = tested on: NCI-H226
U-251 = tested on: U-251
A498 = tested on: A498
ACHN = tested on: ACHN
M14 = tested on: M14
NCI-H522 = tested on: NCI-H522
SK-MEL-5 = tested on: SK-MEL-5
UO-31 = tested on: UO-31
NCI-H23 = tested on: NCI-H23
K562 = tested on: K562
KM12 = tested on: KM12
Hs-578T = tested on: Hs-578T
786-0 = tested on: 786-0
HCC 2998 = tested on: HCC 2998
MCF7 = tested on: MCF7
RPMI-8226 = tested on: RPMI-8226
NCI-H460 = tested on: NCI-H460
SNB-75 = tested on: SNB-75
MDA-N = tested on: MDA-N

CC(C)(CN1CCCCC1)C(/C=C/c1ccc(Cl)cc1)=N\NC(=O)N/N=C(/C=C/c1ccc(Cl)cc1)C(C)(C)CN1CCCCC1
GI50 (UACC-62): 3.53 µM (inactive) | GI50 (SNB-19): 3.4 µM (inactive) | GI50 (HT-29): 3.58 µM (inactive) | GI50 (HCT-15): 2.47 µM | GI50 (A549): 7.28 µM (inactive) | GI50 (HL-60): 2.33 µM (inactive) | GI50 (CCRF-CEM): 2.64 µM (inactive) | GI50 (SN12C): 3.85 µM (inactive) | GI50 (OVCAR-5): 3.95 µM (inactive) | GI50 (SF-295): 10 µM (inactive) | GI50 (UACC-257): 5.05 µM (inactive) | GI50 (OVCAR-3): 3.21 µM (inactive) | GI50 (Malme-3M): 8.38 µM (inactive) | GI50 (IGROV-1): 2.98 µM (inactive) | GI50 (NCI/ADR-RES): 3.86 µM (inactive) | GI50 (OVCAR-4): 2.86 µM (inactive) | GI50 (SK-MEL-28): 9.77 µM (inactive) | GI50 (BT-549): 3.59 µM (inactive) | GI50 (T47D): 3.44 µM (inactive) | GI50 (SK-OV-3): 6.68 µM (inactive) | GI50 (COLO 205): 4.22 µM (inactive) | GI50 (HOP-62): 4.42 µM (inactive) | GI50 (EKVX): 5.4 µM (inactive) | GI50 (OVCAR-8): 4.38 µM (inactive) | GI50 (PC-3): 7.24 µM (inactive) | GI50 (HCT-116): 3.19 µM (inactive) | GI50 (TK-10): 10.5 µM (inactive) | GI50 (MDA-MB-231): 2.65 µM (inactive) | GI50 (SW-620): 2.72 µM (inactive) | GI50 (SF-268): 5.46 µM (inactive) | GI50 (RXF 393): 2.64 µM (inactive) | GI50 (MOLT-4): 3.11 µM (inactive) | GI50 (HOP-92): 2.38 µM (inactive) | GI50 (SK-MEL-2): 8.69 µM (inactive) | GI50 (CAKI-1): 2.39 µM (inactive) | GI50 (SR): 2.7 µM (inactive) | GI50 (DU-145): 6.01 µM (inactive) | GI50 (LOX IMVI): 2.3 µM (inactive) | GI50 (MDA-MB-435): 3.55 µM (inactive) | GI50 (SF-539): 3.44 µM (inactive) | GI50 (NCI-H226): 4.58 µM (inactive) | GI50 (U-251): 3.37 µM (inactive) | GI50 (A498): 7.69 µM (inactive) | GI50 (ACHN): 3.82 µM (inactive) | GI50 (M14): 3.41 µM (inactive) | GI50 (NCI-H522): 2.41 µM (inactive) | GI50 (SK-MEL-5): 5.14 µM (inactive) | GI50 (UO-31): 3.49 µM (inactive) | GI50 (NCI-H23): 2.92 µM (inactive) | GI50 (K562): 3.39 µM (inactive) | GI50 (KM12): 3.24 µM (inactive) | GI50 (Hs-578T): 5.9 µM (inactive) | GI50 (786-0): 2.76 µM (inactive) | GI50 (HCC 2998): 5.51 µM (inactive) | GI50 (MCF7): 4.02 µM (inactive) | GI50 (RPMI-8226): 5.98 µM (inactive) | GI50 (NCI-H460): 3.21 µM (inactive) | GI50 (SNB-75): 1.85 µM (inactive) | GI50 (MDA-N): 3.34 µM (inactive)

C[Si](C)(C)C#CCO[Si](C)(C)C
GI50 (UACC-62): 56.5 µM (inactive) | GI50 (SNB-19): > 100 µM (inactive) | GI50 (HT-29): 32.9 µM (inactive) | GI50 (HCT-15): > 79.8 µM | GI50 (A549): > 100 µM (inactive) | GI50 (HL-60): 31.5 µM (inactive) | GI50 (CCRF-CEM): 5.69 µM (inactive) | GI50 (SN12C): > 100 µM (inactive) | GI50 (OVCAR-5): > 100 µM (inactive) | GI50 (SF-295): > 100 µM (inactive) | GI50 (UACC-257): > 100 µM (inactive) | GI50 (OVCAR-3): > 94.2 µM (inactive) | GI50 (Malme-3M): > 100 µM (inactive) | GI50 (IGROV-1): 16.1 µM (inactive) | GI50 (NCI/ADR-RES): > 100 µM (inactive) | GI50 (OVCAR-4): > 100 µM (inactive) | GI50 (SK-MEL-28): > 75.3 µM (inactive) | GI50 (BT-549): 39.1 µM (inactive) | GI50 (T47D): > 70.6 µM (inactive) | GI50 (SK-OV-3): > 100 µM (inactive) | GI50 (COLO 205): > 54.3 µM (inactive) | GI50 (HOP-62): > 100 µM (inactive) | GI50 (EKVX): 97.9 µM (inactive) | GI50 (OVCAR-8): 36.3 µM (inactive) | GI50 (PC-3): > 100 µM (inactive) | GI50 (HCT-116): 65 µM (inactive) | GI50 (TK-10): > 100 µM (inactive) | GI50 (MDA-MB-231): > 50.2 µM (inactive) | GI50 (SW-620): 37.8 µM (inactive) | GI50 (SF-268): 34.2 µM (inactive) | GI50 (RXF 393): > 100 µM (inactive) | GI50 (MOLT-4): 22.3 µM (inactive) | GI50 (HOP-92): 18.2 µM (inactive) | GI50 (SK-MEL-2): > 54.2 µM (inactive) | GI50 (CAKI-1): > 78.7 µM (inactive) | GI50 (SR): 34.1 µM (inactive) | GI50 (DU-145): > 100 µM (inactive) | GI50 (LOX IMVI): 7.03 µM (inactive) | GI50 (MDA-MB-435): > 61.4 µM (inactive) | GI50 (SF-539): 21.9 µM (inactive) | GI50 (NCI-H226): > 100 µM (inactive) | GI50 (U-251): > 100 µM (inactive) | GI50 (A498): > 100 µM (inactive) | GI50 (ACHN): > 100 µM (inactive) | GI50 (M14): > 74.8 µM (inactive) | GI50 (NCI-H522): 15.9 µM (inactive) | GI50 (SK-MEL-5): > 100 µM (inactive) | GI50 (UO-31): > 100 µM (inactive) | GI50 (NCI-H23): 68.7 µM (inactive) | GI50 (K562): 30.9 µM (inactive) | GI50 (KM12): > 50.4 µM (inactive) | GI50 (Hs-578T): > 100 µM (inactive) | GI50 (786-0): 32.7 µM (inactive) | GI50 (HCC 2998): > 100 µM (inactive) | GI50 (MCF7): > 74.8 µM (inactive) | GI50 (RPMI-8226): 21 µM (inactive) | GI50 (NCI-H460): > 100 µM (inactive) | GI50 (SNB-75): 47.2 µM (inactive) | GI50 (MDA-N): 49.8 µM (inactive)
